Among the data in patent publication US10112944B2, “Heterocyclic compounds useful as inhibitors of TNF” (BRISTOL-MYERS SQUIBB COMPANY, priority 2015, dated 2018) are IC50 values, retold here.

pIC50: −log10 of the molar value.

As usually defined, the pIC50 is the negative decadic logarithm of the IC50, by convention in mol/L. Read a low pIC50 as a high IC50.

This experiment deals with TNFα (Homo sapiens (Human), UniProt P01375). Kind of experiment: TNF induced HEK-Blue assay. Format: cell-based. The following applies: HEK-Blue-CD40L cells, TNFα 0.5 ng/ml, NF-κB-driven secreted alkaline phosphatase reporter, 18 h. The procedure: TNF or CD40L-Induced HEK-Blue Assay
TNFα, sequence (P01375 77-233): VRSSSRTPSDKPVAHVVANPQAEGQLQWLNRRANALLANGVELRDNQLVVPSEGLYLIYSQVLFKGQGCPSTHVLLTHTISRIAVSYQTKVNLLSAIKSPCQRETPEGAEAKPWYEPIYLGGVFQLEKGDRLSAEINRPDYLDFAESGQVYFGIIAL
Test compounds serially diluted in DMSO were plated in an assay plate (Labcyte, Cat. #LP-0200) at final concentrations ranging from 0.004 μM to 25 μM. TNFα (final concentration 0.5 ng/ml) or CD40L (final concentration 30 ng/ml) in assay buffer [DMEM, 4.5 g/l glucose (Gibco, Cat. 21063-029), 10% FBS (Sigma, F4135), 1% Penicillin-Streptomycin (Gibco, Cat. 15140-122), 1% Anti-Anti (Gibco, Cat. 15240-112) and 2 mM L-glutamine (Gibco, Cat. 25030-081)] was then added to the assay plate. After a 30 minute pre-incubation at 37° C. and 5% CO2, HEK-Blue-CD40L cells (InvivoGen, Cat. Code hkb-cd40) containing a NF-κB-driven secreted alkaline phosphatase reporter gene were seeded into the assay plate at a density of 20,000 cells per well. This plate was then incubated for 18 h at 37° C. and 5% CO2. Secreted alkaline phosphatase expression was measured using QUANTI-Blue (InvivoGen, Cat. Code rep-qbl) according to manufacturer's specifications and the assay plate was read on a PerkinElmer Envision at 620 nm.
Inhibition data for the test compound over a range of concentrations was plotted as percentage inhibition of the test compound (100%=maximum inhibition). IC50 values were determined after correcting for background [(sample read−mean of low control)/(mean of high control−mean of low control)] where by the low control is DMSO without stimulation and high control is DMSO with stimulation. The IC50 is defined as the concentration of test compound which produces 50% inhibition and was quantified using the 4 parameter logistic equation to fit the data.
On to `CC(C)(O)c1ncc(-c2ccc3nc4c(n3c2)N(c2ccccc2OC(F)F)CCC4)cn1` [Example 34, 2-(5-(1-(2-(Difluoromethoxy)phenyl)-1,2,3,4-tetrahydroimidazo[1,2-a:5,4-b′]dipyridin-8-yl)pyrimidin-2-yl)propan-2-ol], for which the pIC50 is over 6.00.
To `CC(C)(O)c1ccc(-c2ccc3nc4c(n3c2)N(c2ccccc2OC(F)F)CCC4)cc1` [Example 35, 2-(4-(1-(2-(Difluoromethoxy)phenyl)-1,2,3,4-tetrahydroimidazo[1,2-a:5,4-b′]dipyridin-8-yl)phenyl)propan-2-ol] belongs over 6.00; to `Cc1ccc(C)c(N2CCCc3nc4ccc(-c5ccc(C(C)(C)O)cc5)cn4c32)c1` [Example 36, 2-(4-(1-(2,5-Dimethylphenyl)-1,2,3,4-tetrahydroimidazo[1,2-a:5,4-b′]dipyridin-8-yl)phenyl)propan-2-ol], 5.00 to 6.00; to `COc1ccc(-c2ccc3nc4c(n3c2)N(c2cc(C)ccc2C)CCC4C)cn1` (centres unmarked) [Example 37, 1-(2,5-Dimethylphenyl)-8-(6-methoxypyridin-3-yl)-4-methyl-1,2,3,4-tetrahydroimidazo[1,2-a:5,4-b′]dipyridine], over 6.00.
As for `COc1ccc(-c2ccc3nc4c(n3c2)N(c2ccccc2OC(F)F)CCC4C)cn1` (centres unmarked) [Example 38, 1-(2-(Difluoromethoxy)phenyl)-8-(6-methoxypyridin-3-yl)-4-methyl-1,2,3,4-tetrahydroimidazo[1,2-a:5,4-b′]dipyridine], the figure is over 6.00; as for `Cc1ccc(C)c(N2CCC(C)c3nc4ccc(-c5cnn(C)c5)cn4c32)c1` (centres unmarked) [Example 39, 1-(2,5-Dimethylphenyl)-4-methyl-8-(1-methyl-1H-pyrazol-4-yl)-1,2,3,4-tetrahydroimidazo[1,2-a:5,4-b′]dipyridine], over 6.00; as for `CC1CCN(c2ccccc2OC(F)F)c2c1nc1ccc(-c3cnn(C)c3)cn21` (centres unmarked) [Example 40, 1-(2-(Difluoromethoxy)phenyl)-4-methyl-8-(1-methyl-1H-pyrazol-4-yl)-1,2,3,4-tetrahydroimidazo[1,2-a:5,4-b′]dipyridine], over 6.00.
To `Cc1ccc(C)c(N2CCCc3nc4c(C)c(C)c(-c5cnc(N6CCOCC6)nc5)cn4c32)c1` [Example 41, 4-(5-(1-(2,5-Dimethylphenyl)-6,7-dimethyl-1,2,3,4-tetrahydroimidazo [1,2-a:5,4-b′]dipyridin-8-yl)pyrimidin-2-yl)morpholine] belongs 5.00 to 6.00.
